Experimental data as given in patent US9085527B2, “Fatty acid acylated salicylates and their uses” (Catabasis Pharmaceuticals, Inc., priority 2008, dated 2015).
Where two headings read alike, the source gives them in different places.

Key:
[1] = test system: TNFα secretion in RAW 264.7 macrophages; experiment: TNFα release assay in RAW 264.7 macrophages stimulated with LPS; type: cell-based, mouse
Procedure: The purpose of this assay is to measure the ability of small molecules to inhibit the secretion of TNFα in cultured macrophages stimulated with lipopolysaccharide (LPS). […] Dexamethasone, a potert agonist of the glucocorticoid receptor is used a positive control for inhibition of TNFα release.
Day 1: Seed RAW 264.7 macrophages into 96 well culture plates. Remove culture media from RAW 264.7 cell growing in a 75 mm^2 tissue culture flask (cells should be at ˜70% confluence) and add 10 mL of warmed complete growth media (DMEM+10% FBS+1× pen/step). The cells are scraped into suspension using a sterile plate scraper and homogenized by pipetting up and down with a 10 mL serological pipette. The cell concentration is determined using a clinical hematoctyometer. Cells are then diluted to 150,000 cells per mL into growth media. […]
Day 2: The test compound sample plate is prepared. […] Add 100 μl of Celltiter-glo reagent to each well of the cell culture plate and afterwards measure the luminescence signal (CPS) of the plate using the Victor 5 plate reader (0.3 second read; 60 second plate shaking prior to read). […]
Use 20 μl of media supernatant per well for TNFα ELISA. […] After addition of stop solution, measure OD 450 nm using the Victor 5 plate reader (0.1 second/well scan). […]

[2] = test system: NFκB; experiment: NFκB-driven luciferase reporter in RAW 264.7 cells challenged with LPS; type: cell-based, mouse; details: read-out: NFκB Inhibitory Activity, IC50 μM
Procedure: RAW 264.7 cells transfected with an NFκB-driven luciferase reporter are plated in 96 well plates. Cells are treated with Vehicle (0.1% ethanol) or test compounds for 2 hours. As a positive control for inhibition of NFκB signaling, 6 wells are treated with 10 μM dexamethasone. Cells are then challenged with 200 ng/mL LPS for 3 hours in the presence of test compounds. A subset of wells treated with vehicle should remain unstimulated with LPS to determine the floor signal of the assay. NFκB driven luciferase activity is developed by addition of BriteLite luciferase kit (Perkin-Elmer) and measured using a Victor V plate reader. NFκB activity (luciferase activity) for each treatment was normalized to Vehicle wells treated with LPS (% NFκB Response). AlamarBlue was used to monitor cell viability to ensure that inhibition of luciferase signal was not a result of compound cytotoxicity.
RAW 264.7 cells stably expressing a 3×NF-κB response element-driven luciferase reporter were seeded into 96 well plates. After 18 hours, cells were pre-treated with compounds of the invention for 2 hours, and then stimulated with LPS (lipopolysaccharide, 200 ng/mL) or vehicle control for 3 h in the presence of the compounds of the invention. A set of six vehicle was left unstimulated with LPS in order to measure the assay floor. AlamarBlue viability dye (Invitrogen) was added to cells simultaneously with the delivery of LPS (final AlamarBlue concentration of 10%). After the 3 h incubation period with LPS, cell viability was measured by reading fluorescence (excitation 550 nm, emission 595 nm) with a Perkin Elmer Victor V plate reader. Then cell media was aspirated from each well. Luciferase signal was then developed by addition of the Britelite Plus reagent (Perkin Elmer). Luciferase activity was measured with the Perkin Elmer Victor V plate reader. NF-κB activity was expressed as a percent of the vehicle control wells (stimulated with LPS). Compounds were tested at 6 dose point titrations in triplicate to determine IC50 values.

[3] = Mus musculus, RAW264.7, 200 ng/mL LPS for 3 hours

| Structure (SMILES) | IC50 [2, 3] | also measured |
| --- | --- | --- |
| CC/C=C\C/C=C\C/C=C\C/C=C\C/C=C\C/C=C\CCC(=O)Nc1ccc(O)c(C(=O)O)c1 [III-1] | – | IC50 ([1]; 10 ng/mL LPS, 3 hours, TNFα ELISA, read-out: TNFα Secrection, IC50 μM): 146 µM; IC50 ([2]; 200 ng/mL LPS for 3 hours): < 200 µM |
| CC/C=C\C/C=C\C/C=C\C/C=C\C/C=C\C/C=C\CCC(=O)NC(CC(C)C)C(=O)Oc1cc(C(F)(F)F)ccc1C(=O)OCC (stereo not drawn) [Ii-5, ethyl 2-(2-(4Z,7Z,10Z,13Z,16Z,19Z)-docosa-4,7,10,13,16,19-hexaenamido-4-methylpentanoyloxy)-4-(trilluoromethyl)benzoate] | < 200 µM | – |
| O=C(O)c1ccccc1O [SA, salicylic acid, reference compound] | > 200 µM | – |
| CC/C=C\C/C=C\C/C=C\C/C=C\C/C=C\C/C=C\CCC(=O)Oc1cc(C(F)(F)F)ccc1C(=O)OCC [VIc-3, ethyl 2-((4Z,7Z,10Z,13Z,16Z,19Z)-docosa-4,7,10,13,16,19-hexaenoyloxy)-4-(trilluoromethyl)benzoate] | < 200 µM | – |
| O=C(O)c1ccccc1O [salicylate, Salicylate] | – | inhibition of the production of TNFα (in words, FIG. 2) ([1]; LPS): do not appreciably inhibit |
